Legend:
[1] = tested on: Human PC3 prostate cancer xenografts; assay: ISEL / H&E cell death histology of PC3 xenograft tumors (Example 1); format: in vivo, mice
Protocol: Human PC3 prostate cancer (ATCC) xenografts were grown in the hind upper leg of SCID-17 mice (Charles River) by injecting 1.0×10̂6 RPMI-1640 media cultured cells subcutaneously (Wisent Biocentre), with 10% characterized serum (HyClone), and 100 U/mL of penicillin/streptomycin (Invitrogen). Tumors were grown to 7-8 mm diameter size before treatment. For treatments, ketamine and xylazine anesthetized mice were used. Vialmix device-prepared DEFINITY® (Lantheus Medical Imaging; N. Billerica, Mass.) microbubbles (perfluoropropane gas/liposome shell) were administered at doses of 3.6×10̂8 microbubbles (L, low dose) and 1.08×10̂9 microbubbles (H, high dose) in […] volumes of prepared bubbles, respectively. The final circulating concentrations were selected to be higher (100- and 300-fold, respectively) than the diagnostic dose used to ensure efficient interactions of the bubbles and microvascular walls.
Mice were immersed in a 37 degree Celsius water bath to permit ultrasound treatment and centered on the tumor. For ultrasound exposures, a focused central frequency 500-kHz transducer (IL0509HP; ValpeyFisher Inc.) with a 28.6-mm transducer element diameter was used. This was attached to a micropositioning system, and excited with sinusoidal wave generated by a waveform generator (AWG520; Tektronix), a pulse-receive power amplifier (RPR4000; Ritec Inc.), and a digital-acquisition system (Acquiris CC103, Agiulent Technologies NY). Tumors were exposed over 50 ms to a 16-cycle tone burst at 500-kHz and 3-kHz pulse repetition frequencies with a 10% duty cycle during the 50-ms window. Treatments were for 5 min, amounting to a 750-ms exposure over 5 min for all mouse treatments, with an average duty cycle of 0.25%. Specifically, at 500 kHz the pulse bandwidth of the 16-cycle tone burst was 0.032 ms. The pulse repetition period (3-KHz pulse repetition frequency) was 0.333,ms, which, over 50 ms, corresponded to 150 periods of 16-cycle tone burst or 4.8 ms (rounded to 5 ms). […] The ultrasound peak negative pressure was 570 kPa measured with a calibrated hydrophone. […]

[2] = tested on: ceramide in PC3 prostate tumors; assay: In vivo ceramide immunohistochemistry staining; set-up: species or system mice; details: 4 μg IV; 2 or 8 Gy with high microbubble concentration
From the text: (A) Quantification of ceramide immunohistochemistry staining of sections of PC3 prostate tumors treated with radiation and/or ultrasound-activated microbubbles. Labels indicate non (Nil), low (Low) and high concentration microbubble exposure (High) and radiation doses (0, 2 or 8 Gy). (B) Quantification of ceramide immunohistochemistry staining for experiments with S1P.
In order to test if ultrasound-stimulated microbubbles in combination with ultrasound could stimulate ceramide formation, experiments were carried out using an additional cohort of 75 animals, with five mice per group. Mice were treated as above with no microbubbles, low, and high bubble concentrations in the presence of ultrasound and combined with 0, 2, and 8 Gy radiation doses given in single fractions as above for nine cohorts of n=5 animals. In addition, 0, 2, and 8 Gy conditions with and without high-concentration microbubble exposure in the presence of ultrasound were carried out in the presence of S1P using modified protocols. This used six cohorts of n=5 mice.
For S1P treatments, 4 μg of S1P in 0.2 mL of PET (5% polyethylene glycol, 2.5% ethanol, and 0.8% Tween-80) was injected intravenously in mice 30 min prior to and 5 min after irradiation or after microbubble exposure with ultrasound and irradiation.

[3] = tested on: HUVEC cells; assay: Clonogenic survival assay, HUVEC; format: cell-based; details: 1 μM
Protocol: All cells were grown at 37 degrees Celsius with 5% CO2. Primary astrocytes (obtained from asmase +/+ and asmase −/− mouse brains, Sunnybrook Health Sciences Centre, Toronto, ON) were cultured in DMEM with 10% fetal bovine serum (FBS) and 5% Penicillin. HUVEC cells (Sunnybrook Health Sciences Centre, Toronto, ON, Canada) were grown in EBM-2 (Lonza, Walkersville, Md. USA) supplemented with 10 ml FBS, 0.2 ml Hydrocortisone, 2 ml hFGF-B, 0.5 ml VEGF, 0.5 ml R3-IGF-1, 0.5 ml ascorbic acid, 0.5 ml hEGF, 0.5 ml GA-1000 and 0.5 ml Heparin using EGM-2 singlequots kits. Breast and PC3 cells were grown in 1640-RPMI medium (Sigma-Aldrich Canada Inc., Oakville, ON, Canada), leukemia (AML, Ontario Cancer Institute, Toronto, ON), and KHT sarcoma cells (Sunnybrook Health Science Centre) were grown in α-MEM (Sigma-Aldrich Canada Inc., Oakville, ON), all with 10% FBS and 5% penicillin. […]
In order to treat the cells, 50 μL of 45 seconds agitated vial-mix DEFINITY® microbubbles (Perflutren lipid microspheres, Lantheus Medical Imaging, Billerica, Mass. USA) and 1.5 ml of the 2×10̂6 cells/ml solution were added to the chamber (for a 3.3% v/v bubbles concentration). […] Transducer characteristics were measured using a calibrated hydrophone in the absence and presence of the treatment set-up. […]

[4] = tested on: asmase +/+ astrocytes; assay: Clonogenic survival assay, asmase +/+ astrocytes; format: cell-based, mouse
Protocol: All cells were grown at 37 degrees Celsius with 5% CO2. Primary astrocytes (obtained from asmase +/+ and asmase −/− mouse brains, Sunnybrook Health Sciences Centre, Toronto, ON) were cultured in DMEM with 10% fetal bovine serum (FBS) and 5% Penicillin. HUVEC cells (Sunnybrook Health Sciences Centre, Toronto, ON, Canada) were grown in EBM-2 (Lonza, Walkersville, Md. USA) supplemented with 10 ml FBS, 0.2 ml Hydrocortisone, 2 ml hFGF-B, 0.5 ml VEGF, 0.5 ml R3-IGF-1, 0.5 ml ascorbic acid, 0.5 ml hEGF, 0.5 ml GA-1000 and 0.5 ml Heparin using EGM-2 singlequots kits. Breast and PC3 cells were grown in 1640-RPMI medium (Sigma-Aldrich Canada Inc., Oakville, ON, Canada), leukemia (AML, Ontario Cancer Institute, Toronto, ON), and KHT sarcoma cells (Sunnybrook Health Science Centre) were grown in α-MEM (Sigma-Aldrich Canada Inc., Oakville, ON), all with 10% FBS and 5% penicillin. In order to harvest adherent cells, confluent flasks were PBS washed, after which 0.05% trypsin EDTA (Gibco, Carlsbad, Calif. USA) was added for 5 minutes to detach cells. After trypsinization, cells were centrifuged at 440 g for 10 minutes and brought to a final cell concentration of 2×10̂6 cells/ml of medium with 1.5 ml aliquots used for each treatment (i.e., 3×10̂6 cells/sample). In all experiments cells were carefully handled to avoid clumping after typrinsization and this was verified by microscopy in advance of ultrasound treatments.
For ultrasound treatments, a pulse was generated by a 2.86 cm-diameter single element transducer (IL0509HP, 500 kHz center frequency, Valpey-Fisher Inc., Hopkinton, Mass., USA) connected to a micro-positioning system. The set-up also included a cylindrical chamber (10 mm diameter) for cell exposure. The chamber had mylar windows on both sides and a magnetic stirrer to mix cells and bubbles during ultrasound exposure in order to avoid standing wave effects.
In order to treat the cells, 50 μL of 45 seconds agitated vial-mix DEFINITY® microbubbles (Perflutren lipid microspheres, Lantheus Medical Imaging, Billerica, Mass. USA) and 1.5 ml of the 2×10̂6 cells/ml solution were added to the chamber (for a 3.3% v/v bubbles concentration). Insonification took place using a peak negative pressure of 570 kPa using a pulse sequence with a 9.6% duty cycle composed of a 16 cycle tone burst and a pulse repetition frequency of 3 kHz, for a total insonification time of 2,880 milliseconds over 30 seconds. The −6 dB beamwidth for this transducer was […] and the −3 dB beamwidth was 18 mm. Transducer characteristics were measured using a calibrated hydrophone in the absence and presence of the treatment set-up.
Sphingosine-1-Phosphate (S1P) (Biomol International L.P., Plymouth Meeting, Pa. USA) was used to counteract the mechanisms leading to ceramide-mediated apoptotic cell death. In order to treat cells, 1 μM S1P was added to asmase +/+ and asmase −/− culture media one hour before damage treatments with radiation or ultrasound, and was present during trypsinization, and for clonogenic survival assays in media. The rationale for this was that any activation of ceramide-dependent cell death by treatment may take many hours to manifest and should be inhibited long term. Treatment of cells with C2-Ceramide (Sigma-Aldrich) was carried out similarly.
Radiation treatments were carried out by exposing samples to X-ray ionizing radiation (Faxitron Cabinet X-ray, Faxitron X-Ray LLC, IL) at a dose rate of 200 cGy/minute. […]

bFGF: basic fibroblast growth factor (Sigma), a known endothelial cell protector
effect of pre-treatment on microbubble-induced cell death ([1]; 0.45 μg IV 1 hour before microbubbles (1% vol/vol) with ultrasound): diminished the cell death | cell death, bFGF-treated animals with ultrasound-stimulated microbubbles versus untreated control ([1]; 0.45 μg IV, P=0.24): no difference

CCCCCCCCCCCCC/C=C/[C@@H](O)[C@@H](N)COP(=O)(O)O [S1P, Sphingosine-1-Phosphate]
ceramide increases in the presence of S1P [2]: increases were not apparent | protection from apoptosis ([3]; radiation or ultrasound and microbubbles, p<0.01): significantly protected | protective effect on survival ([4]; 1 μM, cells treated with either radiation or ultrasound with microbubbles): no protective effect | protective effect on survival ([4]; 1 μM, ultrasound and microbubbles prior to radiation): protection was detected | radioresistance of wild-type astrocytes ([4]; S1P-treated, radiation): conferred some radioresistance | effect on apoptotic cell death induced by microbubbles and radiation ([1]; 4 μg IV 30 min before and 5 min after treatments, 0, 2, 8 Gy with or without high microbubbles): diminishment of detected apoptotic cell death

CCCCCCCCCCCCC/C=C/[C@@H](O)[C@H](CO)NC(C)=O [C2-Ceramide]
survival on ceramide exposure [3]: did not survive | cell kill ([4]; 1 μM): no significant cell kill | survival ([4]; ceramide alone as a control): 50±5%

Reference: US20150196638A1, “SYSTEM AND METHOD FOR USING ULTRASOUND-STIMULATED MICROBUBBLE EXPOSURES TO INDUCE CERAMIDE ACCUMULATION IN ENDOTHELIAL AND TUMOR CELLS” (priority 2012, published 2015)
